For this test, the target named is T1, aldose reductase (Rattus norvegicus, UniProt P07943).
T1 construct: The lenses were homogenized in 3 volumes of 135 mM sodium potassium phosphate buffer (pH 7.0) and centrifuged; from tissue; host or cells: crystalline lenses of six-week-old male SD rats
Put plainly: Test for Examining Aldose Reductase Inhibitory Effect (rat lens enzyme, DL-glyceraldehyde substrate, absorbance at 340 nm). It counts as biochemical. The note with it: aldose reductase solution from crystalline lenses of SD rats; DL-glyceraldehyde 10 mM; 30°C for 5 minutes; pH 5.2; compound at 10 ⁻⁶ M, 10⁻⁷ M or 10 ⁻⁸ M; read-out: IC₅₀. The procedure:
Six-week-old male SD rats were anesthetized with ether and killed. Then their crystalline lenses were immediately removed and stored at -80 °C . […] The resulting supernatant was dialyzed overnight against 0.05 M sodium chloride solution to obtain an aldose reductase solution. All operations were conducted at 4 °C and the enzyme solution was stored at -80°C .
More specifically, 0.1 ml of DL-glyceraldehyde (final concentration: 10 mM) was added to 0.9 ml of 100 mM sodium potassium phosphate buffer (pH 5.2) which contained lithium sulfate (final concentration: 400 mM), reduced nicotinamide adenine dinucleotide phosphate (final concentration: 0.15 mM), the enzyme solution, and the compound to be evaluated (final concentration: 10 ⁻⁶ M, 10⁻⁷ M or 10 ⁻⁸ M), and then the reaction was conducted at 30°C for 5 minutes. During the reaction, the change in the absorbance at 340 nm with time was monitored.
The maximum reducing rate of the absorbance (U) during the reaction was determined. By subtracting, from this value, the maximum reducing rate (U₀) at 340 nm of the reaction solution before the addition of the substrate (DL-glyceraldehyde), the reaction rate (V = U - U₀) was calculated as a true reaction rate in the presence of the compound to be tested. The same procedure was repeated except for the absence of the compound to be tested. A true reaction rate (V₀) in case the enzyme was not inhibited was calculated (V₀ = U¹ - U₀¹). The aldose reductase inhibitory activity of the test compounds was determined according to the following formula: Rate of Inhibition (%) = (V₀ - V)/V₀ x 100 [formula]
Consider `Cc1ccc2cc(-c3nnnn3CC(=O)O)sc2c1` [Example 2-8, [5-(6-Methyl-2-benzothienyl)tetrazol-1-yl]acetic acid], for which the IC50 was 18 nM.
Regarding `COc1ccc2c(C)c(-c3nnnn3CC(=O)O)oc2c1` [Example 2-17, [5-(6-Methoxy-3-methyl-2-benzofuryl)tetrazol-1-yl]acetic acid], the IC50 came out at 160 nM.
On to `O=C(O)Cn1nnnc1-c1csc2ccccc12` [Example 2-2, [5-(3-Benzothienyl)tetrazol-1-yl]acetic acid], for which the IC50 amounted to 19 nM.
Turning to `CC(C)c1ccc2cc(-c3nnnn3CC(=O)O)sc2c1` [Example 2-13, [5-(6-Isopropyl-2-benzothienyl)tetrazol-1-yl]acetic acid], the IC50 stood at 18 nM.
Consider `O=C(O)Cn1nnnc1-c1cccc2sccc12` [Example 2-3, [5-(4-Benzothienyl)tetrazol-1-yl]acetic acid], for which the IC50 stood at 26 nM.
`O=C(O)Cn1nnnc1-c1ccc2ccsc2c1` [Example 2-4, [5-(6-Benzothienyl)tetrazol-1-yl]acetic acid]: the IC50 was 34 nM.
As for `COc1cccc2sc(-c3nnnn3CC(=O)O)cc12` [Example 2-9, [5-(4-Methoxy-2-benzothienyl)tetrazol-1-yl]acetic acid], the IC50 is 20 nM.
On to `Cc1cccc2sc(-c3nnnn3CC(=O)O)cc12` [Example 2-7, [5-(4-Methyl-2-benzothienyl)tetrazol-1-yl]acetic acid], for which the IC50 turned out to be 22 nM.
Take `COc1ccc2cc(-c3nnnn3CC(=O)O)sc2c1` [Example 2-11, [5-(6-Methoxy-2-benzothienyl)tetrazol-1-yl]acetic acid]: the IC50 was 21 nM.
For the compound `Cc1c(-c2nnnn2CC(=O)O)oc2ccccc12` [Example 2-16, [5-(3-Methyl-2-Benzofuryl)tetrazol-1-yl]acetic acid], the IC50 is 68 nM.
For `O=C(O)Cn1nnnc1-c1cc2ccccc2s1` [Example 2-1, [5-(2-Benzothienyl)tetrazol-1-yl]acetic acid], the IC50 turned out to be 24 nM.
As for `Cc1c(-c2nnnn2CC(=O)O)sc2ccccc12` [Example 2-5, [5-(3-Methyl-2-benzothienyl)tetrazol-1-yl]acetic acid], the IC50 was determined as 32 nM.
Take `COc1ccc2sc(-c3nnnn3CC(=O)O)cc2c1` [Example 2-10, [5-(5-Methoxy-2-benzothienyl)tetrazol-1-yl]acetic acid]: the IC50 is 28 nM.
For `CCCCOc1ccc2cc(-c3nnnn3CC(=O)O)sc2c1` [Example 2-12, [5-(6-Butoxy-2-benzothienyl)tetrazol-1-yl]acetic acid], the IC50 was found to be 24 nM.
The value for `O=C(O)Cn1nnnc1-c1cc2ccccc2o1` [Example 2-15, [5-(2-Benzofuryl)tetrazol-1-yl]acetic acid] was 46 nM; that for `O=C(O)Cn1nnnc1-c1sc2ccccc2c1Cl` [Example 2-6, [5-(3-Chloro-2-benzothienyl)tetrazol-1-yl]acetic acid] was 35 nM.
Under `COc1cc2cc(-c3nnnn3CC(=O)O)sc2c(OC)c1OC` [Example 2-14, [5-(5,6,7-Trimethoxy-2-benzothienyl)tetrazol-1-yl]acetic acid] stands 69 nM.

(Values after patent EP0506011A1, “Tetrazoleacetic acid derivatives having aldose reductase inhibitory activity” (Wakamoto Pharmaceutical Co., Ltd., priority 1991, dated 1992).)
